Results taken from the supplement of paper PMC10307832.

Columns and labels:
Test in all cases: relative viability (nuclei count vs DMSO), 5 days (fraction); higher = more cells survive
[1] = compound: C1=CC2=C(C=C(C(=C2N=C1)O)N=NC3=CC4=C(C=C3)C=C(C=C4)S(=O)(=O)O)S(=O)(=O)O + COc1cc2c(Oc3ccc(NC(=O)C4(C(=O)Nc5ccc(F)cc5)CC4)cc3F)ccnc2cc1OCCCN1CCOCC1 [Foretinib] (partner 0.25 µM)
Method in brief: (§1)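 Relative viability equals treated-well nuclei counts divided by vehicle-well nuclei counts. Counts came from 4× images of lung cancer cell lines grown in 1536-well plates for 5 days after pin-tool dosing on the day after seeding. Dosing used one drug alone or a fixed anchor-drug dose plus five library-drug doses (not always all listed) in √10 steps, and values are medians of duplicate plates.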

AT-7519 + OSI-027 = compound: O=C(NC1CCNCC1)c1n[nH]cc1NC(=O)c1c(Cl)cccc1Cl [AT-7519] + COc1cccc2cc(-c3nc([C@H]4CC[C@H](C(=O)O)CC4)n4ncnc(N)c34)[nH]c12 [OSI-027] (partner 0.5 µM)
Method in brief: as §1

AT-7519 + Lapatinib = compound: O=C(NC1CCNCC1)c1n[nH]cc1NC(=O)c1c(Cl)cccc1Cl [AT-7519] + CS(=O)(=O)CCNCc1ccc(-c2ccc3ncnc(Nc4ccc(OCc5cccc(F)c5)c(Cl)c4)c3c2)o1 [Lapatinib] (partner 2 µM)
Method in brief: as §1

AT-7519 + Pemetrexed = compound: O=C(NC1CCNCC1)c1n[nH]cc1NC(=O)c1c(Cl)cccc1Cl [AT-7519] + Nc1nc2[nH]cc(CCc3ccc(C(=O)N[C@@H](CCC(=O)O)C(=O)O)cc3)c2c(=O)[nH]1 [Pemetrexed] (partner 0.2 µM)
Method in brief: as §1

Cell Line	relative viability ([1]; first compound 0.08 µM)	relative viability ([1]; first compound 0.253 µM)	relative viability ([1]; first compound 0.8 µM)	relative viability ([1]; first compound 2.53 µM)	relative viability ([1]; first compound 8 µM)	relative viability (AT-7519 + OSI-027; first compound 0.01 µM)	relative viability (AT-7519 + OSI-027; first compound 0.03162 µM)	relative viability (AT-7519 + OSI-027; first compound 0.3162 µM)	relative viability (AT-7519 + OSI-027; first compound 1 µM)	relative viability (AT-7519 + Lapatinib; first compound 0.01 µM)	relative viability (AT-7519 + Lapatinib; first compound 0.03162 µM)	relative viability (AT-7519 + Lapatinib; first compound 0.3162 µM)	relative viability (AT-7519 + Lapatinib; first compound 1 µM)	relative viability (AT-7519 + Pemetrexed; first compound 0.01 µM)	relative viability (AT-7519 + Pemetrexed; first compound 0.03162 µM)	relative viability (AT-7519 + Pemetrexed; first compound 0.3162 µM)	relative viability (AT-7519 + Pemetrexed; first compound 1 µM)
LU99A	0.958	0.812	0.684	0.913	0.732	0.315	0.248	0.223	0.299	1.02	1.07	0.898	0.41	0.215	0.199	0.165	0.198
LXF-289	1.09	0.987	0.998	0.974	0.914	0.758	0.666	0.706	0.737	0.929	0.902	0.953	0.912	0.866	0.905	0.909	0.992
NCI-H23	0.544	0.923	0.925	1.04	0.84	0.475	0.521	0.664	0.396	0.955	0.975	0.919	0.218	0.563	0.734	0.591	0.494
NCI-H322M	1.1	0.989	0.919	0.89	0.95	0.539	0.521	0.422	0.428	0.648	0.606	0.525	0.67	0.563	0.623	0.469	0.543
NCI-H358	0.778	0.61	0.635	0.651	0.884	0.83	0.676	0.527	0.194	0.406	0.447	0.335	0.198	0.175	0.172	0.164	0.132
NCI-H460	1.12	1.01	1.01	1.01	0.928	0.906	0.686	0.288	0.0567	1.71	0.877	0.0532	0.013	0.0626	0.0564	0.0558	0.0636
NCI-H520	1.01	0.828	0.901	0.887	1.05	0.254	0.285	0.26	0.241	0.922	0.638	0.587	0.283	0.815	0.635	0.619	0.389
NCI-H596	0.902	0.904	0.82	1.01	0.737	0.723	0.628	0.644	0.754	1.05	1.11	1.02	0.767	0.473	0.501	0.459	0.513
NCI-H647	1.33	1.09	1.14	1.28	1.3	0.538	0.675	0.676	0.471	1.02	1	0.937	0.291	0.142	0.159	0.177	0.129
NCI-H650	1.13	1.07	1.01	1.02	1.06	0.529	0.496	0.498	0.711	0.923	0.841	0.781	0.75	1.07	1	0.931	1.25
NCI-H661	1.12	0.989	0.981	1.08	1.04	0.671	0.694	0.564	0.333	0.348	0.383	0.385	0.322	0.945	0.953	0.99	0.262
NCI-H838	1.13	1.06	1.04	1.03	1.04	0.345	0.39	0.276	0.127	1.05	0.815	0.124	0.0875	0.247	0.246	0.281	0.115
NCI-H1355	1.1	0.988	0.92	1.03	0.996	0.407	0.471	0.374	0.374	0.959	0.911	1.12	0.989	1.04	1.03	1.06	0.974
NCI-H1395	0.965	0.988	0.956	1.03	1	0.659	0.618	0.525	0.62	1.03	1.14	0.802	0.602	0.847	0.896	0.899	0.558
NCI-H1437	1.33	1.23	1.32	1.27	0.66	0.755	0.938	0.824	0.645	0.77	0.71	0.514	0.22	0.325	0.326	0.35	0.229
NCI-H1563	1.04	1.02	0.91	0.996	0.895	0.737	0.794	0.722	0.728	0.923	0.971	1.07	1.01	0.743	0.868	0.81	0.807
NCI-H1650	1.34	1.17	1.38	1.01	0.448	0.779	0.598	0.46	0.181	0.781	0.782	0.555	0.21	0.376	0.35	0.323	0.197
NCI-H1651	0.923	0.727	0.864	0.857	0.623	0.764	0.734	0.598	0.59	0.862	0.784	0.607	0.534	0.677	0.562	0.556	0.744
NCI-H1666	1.05	0.962	0.962	0.958	0.747	0.825	0.82	0.838	0.652	0.657	0.579	0.327	0.347	0.871	0.777	0.828	0.651

Cell Line	relative viability ([1]; first compound 0.08 µM)	relative viability ([1]; first compound 0.253 µM)	relative viability ([1]; first compound 0.8 µM)	relative viability ([1]; first compound 2.53 µM)	relative viability ([1]; first compound 8 µM)	relative viability (AT-7519 + OSI-027; first compound 0.01 µM)	relative viability (AT-7519 + OSI-027; first compound 0.03162 µM)	relative viability (AT-7519 + OSI-027; first compound 0.3162 µM)	relative viability (AT-7519 + OSI-027; first compound 1 µM)	relative viability (AT-7519 + Lapatinib; first compound 0.01 µM)	relative viability (AT-7519 + Lapatinib; first compound 0.03162 µM)	relative viability (AT-7519 + Lapatinib; first compound 0.3162 µM)	relative viability (AT-7519 + Lapatinib; first compound 1 µM)	relative viability (AT-7519 + Pemetrexed; first compound 0.01 µM)	relative viability (AT-7519 + Pemetrexed; first compound 0.03162 µM)	relative viability (AT-7519 + Pemetrexed; first compound 0.3162 µM)	relative viability (AT-7519 + Pemetrexed; first compound 1 µM)
NCI-H1734	0.916	0.892	0.777	0.891	0.88	0.521	0.543	0.445	0.397	0.893	1.03	0.928	0.427	0.426	0.435	0.383	0.366
NCI-H1755	0.915	0.916	0.869	0.944	0.89	0.66	0.655	0.705	0.699	1.02	1.03	0.948	1.11	0.413	0.461	0.566	0.442
NCI-H1793	0.539	0.606	0.674	0.749	0.71	0.229	0.254	0.285	0.247	0.554	0.713	0.421	0.226	0.752	0.882	0.647	0.693
NCI-H1915	1.12	1.04	1.09	1.13	1.12	0.406	0.598	0.521	0.394	1.02	0.987	0.863	0.8	0.5	0.494	0.516	0.501
NCI-H1944	0.899	0.937	0.93	0.769	0.748	0.436	0.402	0.367	0.328	0.807	0.775	0.84	0.864	0.633	0.593	0.602	0.511
NCI-H1975	0.912	1.02	0.916	1.04	0.952	0.827	0.778	0.503	0.191	0.861	0.817	0.447	0.158	0.304	0.302	0.306	0.181
NCI-H1993	0.766	0.78	0.825	0.734	0.643	0.569	0.494	0.49	0.563	0.808	0.787	0.632	0.699	0.536	0.581	0.522	0.532
NCI-H2009	1.3	1.25	1.18	1.28	0.739	0.638	0.665	0.587	0.321	1.09	0.825	0.66	0.277	1.11	0.932	1.08	0.869
NCI-H2023	0.769	0.747	0.794	0.997	0.876	0.435	0.347	0.351	0.203	0.911	0.755	0.504	0.177	0.203	0.233	0.203	0.111
NCI-H2085	1.08	0.886	0.894	0.963	0.634	0.739	0.662	0.626	0.651	0.845	0.776	0.713	0.488	0.924	1.01	0.901	0.986
NCI-H2087	1.07	1.14	0.873	1.1	0.921	0.729	0.649	0.493	0.151	1.2	1.11	0.998	0.185	0.612	0.536	0.568	0.344
NCI-H2126	1.22	1.16	1.22	1.25	1.15	0.668	0.665	0.575	0.688	0.804	0.752	0.683	0.857	0.711	0.745	0.689	0.576
NCI-H2170	1.05	0.925	0.958	0.799	0.954	0.782	0.685	0.687	0.719	0.289	0.305	0.278	0.249	0.263	0.276	0.241	0.25
NCI-H2228	0.902	0.826	0.87	0.878	0.923	0.517	0.586	0.469	0.446	1.02	1.11	0.669	0.481	0.404	0.395	0.313	0.265
NCI-H2347	1.07	1.12	0.766	1.13	0.801	0.457	0.389	0.358	0.229	1.04	1.06	0.989	0.935	0.462	0.367	0.398	0.453
NCI-H2405	1.1	1.04	1.06	1.03	1.04	0.593	0.655	0.595	0.478	1.04	1.04	1.03	0.719	1.02	0.996	1.08	0.729
NCI-H3122	0.967	0.977	0.925	0.982	0.973	1.09	0.871	0.357	0.152	1.02	0.986	1.08	0.701	0.215	0.209	0.173	0.176
PC-3 [JPC-3]	1.1	1.03	1.08	0.99	0.951	0.706	0.904	0.697	0.696	0.529	0.441	0.416	0.52	1.05	1.1	1.11	1.47
